Measurements published in PubChem BioAssay AID1191 (EPA DSSTox, 2008).
Activity calls are given as the source filed them.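 The calls were made as follows: active = at least one hamster carcinogenic potency value with a tumor site listed for any sex group; inactive = no potency or tumor site yet a negative hamster study.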

System: hamster chronic carcinogenicity bioassay, TD50
Assay: DSSTox (CPDBAS) Carcinogenic Potency Database Summary Hamster Bioassay Results
Description: The Carcinogenic Potency Database (CPDB) is a unique and widely used international resource of the results of over 6500 chronic, long-term animal cancer tests on over 1500 chemical substances. The CPDB provides easy access to the bioassay literature, with qualitative and quantitative analyses of both positive and negative experiments that have been published over the past 50 years in the general literature and by the National Cancer Institute/National Toxicology Program. The CPDB standardizes the diverse literature of cancer bioassays that vary widely in protocol, histopathological examination and nomenclature, and in the published author's choices of what information to provide in their papers. Results are reported in the CPDB for tests in rats, mice, hamsters, dogs, and nonhuman primates, and are based on the most positive result among all experiments for each sex-species. The DSSTox CPDBAS (all species) file incorporates data from the CPDB Summary Tables for the full list of over 1500 chemical substances tested in at least one species. Summary bioassay results for Hamster (TD50, tumor sites, male, female, both sexes) are provided in the CPDB Summary Tables and the DSSTox CPDBAS file for over 80 chemical substances.
TD50 is a standardized quantitative measure of carcinogenic potency (analogous to an LD50) and is reported in the CPDB Summary Table for each species. Activity Score for actives is computed by mapping of LOG10 (1/TD50_Hamster_mmol) activity values spanning range [MIN, MAX] onto Integer 1-100 Activity Score range, where 100 is highest potency and 1 is lowest: Activity Score = 100 * INTEGER[(log10(1/Activity) - MIN)/(MAX - MIN)]. If activity is reported but no TD50_Hamster_mmol value is computed, such as for a mixture, the Activity Score is assigned the activity value "50". […] Target sites are reported for each sex-species group with a positive result in the CPDB on the basis of a positive author's opinion for the particular site, using all results from both the general literature and NCI/NTP bioassays. If a chemical has two or more target sites listed, the results may be from different experiments, and a single site may be a target organ in more than one experiment, as well. Blank entry in TargetSites field indicates no results reported.

Compound	outcome	Potency
O=C(O)c1ccc(O)c(O)c1	inactive	–
O=CNNc1nc(-c2ccc([N+](=O)[O-])o2)cs1	–	16.6 mg/kg/day
CC1CN(N=O)CC(C)N1N=O (stereo not given)	–	3.1 mg/kg/day
CC1CN(N=O)C(=O)O1 (stereo not given)	–	0.172 mg/kg/day
CC(=O)Nc1ccc2c(c1)Cc1ccccc1-2	–	17.4 mg/kg/day
CC(C)(Oc1ccc(C2CCCc3ccccc32)cc1)C(=O)O (stereo not given)	inactive; no positive results	–
[Cd+2].[Cl-].[Cl-]	inactive; no positive results	–
C=CCN(CC(C)=O)N=O	–	1.19 mg/kg/day
O=CNc1nc(-c2ccc([N+](=O)[O-])o2)cs1	–	9.77 mg/kg/day
CC(=O)Nc1nc(-c2ccc([N+](=O)[O-])o2)cs1	–	8.91 mg/kg/day
N=C1C=CC(=C(c2ccc(N)cc2)c2ccc(N)cc2)C=C1	inactive; no positive results	–
ClC(Cl)=C(c1ccc(Cl)cc1)c1ccc(Cl)cc1	–	202 mg/kg/day
CC(O)CN(CC(O)CO)N=O (stereo not given)	–	1.59 mg/kg/day
Clc1c(Cl)c(Cl)c(Cl)c(Cl)c1Cl	–	4.96 mg/kg/day
CC(=O)CN(CCO)N=O	–	0.997 mg/kg/day
CC=O	–	565 mg/kg/day
CCOC(=O)N(C)N=O	–	0.127 mg/kg/day
c1ccc(Nc2ccc3ccccc3c2)cc1	inactive; no positive results	–
S=C=NCCc1ccccc1	inactive	–
CN(C)C(=O)Cl	–	0.625 mg/kg/day
CC1=CC(=C(c2ccc(N)cc2)c2ccc(N)cc2)C=CC1=N	inactive; no positive results	–
O=S(=O)(O)O	–	118 mg/kg/day

Compound	outcome	Potency
NNCCO	inactive; no positive results	–
NN	–	4.16 mg/kg/day
CC1CN(N=O)CC(C)N1C (stereo not given)	–	1.32 mg/kg/day
CNNC	–	0.179 mg/kg/day
CN(Cc1cnc2nc(N)nc(N)c2n1)c1ccc(C(=O)N[C@@H](CCC(=O)O)C(=O)O)cc1	inactive; no positive results	–
Clc1ccc(C(c2ccc(Cl)cc2)C(Cl)(Cl)Cl)cc1	inactive; no positive results	–
C[C@@H]1O[C@@H](OC[C@H]2O[C@@H](Oc3c(-c4ccc(O)c(O)c4)oc4cc(O)cc(O)c4c3=O)[C@H](O)[C@@H](O)[C@@H]2O)[C@H](O)[C@H](O)[C@H]1O	inactive; no positive results	–
C=CCl	–	39.4 mg/kg/day
O=NN1CCCC1	–	14.2 mg/kg/day
COC1=CC(=O)C[C@@H](C)[C@]12Oc1c(Cl)c(OC)cc(OC)c1C2=O	inactive; no positive results	–
NC(=O)N(CCc1ccccc1)N=O	–	0.964 mg/kg/day
O=NN1CCOC1	–	0.798 mg/kg/day
O=NN1CCCCC1	–	83.3 mg/kg/day
O=c1c(O)c(-c2ccc(O)c(O)c2)oc2cc(O)cc(O)c12	inactive; no positive results	–
O=NN1CCC1	–	7.14 mg/kg/day
NC(=O)/C(=C\c1ccc([N+](=O)[O-])o1)c1ccco1	–	164 mg/kg/day
C=CC(=C)Cl	inactive; no positive results	–
O=NN1CCCC1c1ccc[n+]([O-])c1 (stereo not given)	inactive; no positive results	–
N#[N+]c1ccccc1	inactive; no positive results	–
COCCl	–	16.4 mg/kg/day
CN(CC(O)CO)N=O (stereo not given)	–	0.94 mg/kg/day
CC1CN(N=O)CC(C)O1 (stereo not given)	–	2 mg/kg/day

Compound	outcome	Potency
C=CCN(CC=C)N=O	–	1.54 mg/kg/day
CNN	–	11.5 mg/kg/day
O=NO	inactive; no positive results	–
CC(=O)CN(N=O)C(N)=O	–	0.13 mg/kg/day
CC(=O)N(O)c1ccc2c(c1)Cc1ccccc1-2	–	2.1 mg/kg/day
CN(N)C=O	–	5.8 mg/kg/day
CC(C)OC(=O)Nc1cccc(Cl)c1	inactive; no positive results	–
O=NN(CCO)CC(O)CO (stereo not given)	inactive	–
CCOC(N)=O	–	65.2 mg/kg/day
CN(C)CCN(Cc1cccs1)c1ccccn1	inactive; no positive results	–
F[B-](F)(F)F	inactive; no positive results	–
Cc1cc(=O)[nH]c(=S)[nH]1	–	53.4 mg/kg/day
NNC(=O)c1ccncc1	inactive; no positive results	–
C=O	inactive; no positive results	–
O=NN1CCCC1c1cccnc1 (stereo not given)	–	10.8 mg/kg/day
CCN(N=O)C(=O)NCC(C)=O	–	0.443 mg/kg/day
CCO	inactive; no positive results	–
CN(C)CCN(C)N=O	–	3.83 mg/kg/day
CN(CCCC(=O)c1cccnc1)N=O	inactive	–
O=Cc1ccco1	inactive; no positive results	–
CC(=O)CN(N=O)C(=O)NCCCl	–	0.338 mg/kg/day
CN(C)N	–	124 mg/kg/day

Compound	outcome	Potency
O=[N+]([O-])c1ccc2c3c(cccc13)CC2	inactive	–
CC(=O)CN(CC(O)CO)N=O (stereo not given)	–	0.754 mg/kg/day
ClC=C(Cl)Cl	inactive; no positive results	–
CC(C)OC(=O)Nc1ccccc1	inactive; no positive results	–
[O-][Br+2]([O-])O	–	533 mg/kg/day
O=NN1CCOCC1	–	3.57 mg/kg/day
OCC1CO1 (stereo not given)	–	56.1 mg/kg/day
O=S(=O)([O-])[O-].[Cd+2]	inactive; no positive results	–
COc1ccc(O)c(C(C)(C)C)c1	inactive; no positive results	–
O=C(C1CCCCC1)N1CC(=O)N2CCc3ccccc3C2C1 (stereo not given)	inactive; no positive results	–
CCN(N=O)C(=O)NCCO	–	1.04 mg/kg/day
O=c1ccc2ccccc2o1	inactive; no positive results	–
O=C(O)c1ccncc1	inactive; no positive results	–
C=C(C)C(=O)OC	inactive; no positive results	–
Nc1ncn[nH]1	inactive; no positive results	–
ClC1=C(Cl)[C@]2(Cl)[C@@H]3[C@@H]4C[C@@H]([C@H]5O[C@@H]45)[C@@H]3[C@@]1(Cl)C2(Cl)Cl	inactive; no positive results	–
CC(C)(OCc1ccc(-c2ccc(Cl)cc2)cc1)C(=O)O	inactive; no positive results	–
Cc1cccc(Nc2cc(Cl)nc(SCC(=O)O)n2)c1C	inactive; no positive results	–
CCC1(c2ccccc2)C(=O)NC(=O)NC1=O	inactive; no positive results	–
